Reference: patent US20130102493A1, “GENE EXPRESSION ANALYSES FOR CHARACTERIZING AND IDENTIFYING GENOTOXIC COMPOUNDS” (MERCK PATENT GESELLSCHAFT MIT BESCHRANKTER HAFTUNG, priority 2010, published 2013)
Read-outs that look alike come from different tables or passages of the source. Marks after values point to notes of the source that are not given here. *1 amine or outer side, *2 acyl side, *3 side chain or, on linkers, in order; H or OH if unused. Where a SMILES comes first, the peptide text is derived from it. Bridges are numbered along the chain shown (N, C = ends). Roman numbers before positions name the chains, in order. [ ]: non-standard residue; d: D form. Actinocin(9to1) = Cc1c2oc3c(C)ccc(C(=O)[*:1])c3nc-2c(C(=O)[*:2])c(N)c1=O; NMeV = CN[C@H](C(=O)O)C(C)C; Sar = CNCC(=O)O

Columns and labels:
HepG2 cells [1] = tested on: HepG2 cells
HepG2 cells [2] = tested on: HepG2 cells; remark: listed apart in the source
HepG2 cells [3] = tested on: HepG2 cells; remark: listed apart in the source
[4] = tested on: CYP competent primary hepatocytes; conditions: cited from earlier work

Cc1c2ccccc2c(C)c2c1ccc1ccccc12 [DMBA, 7,12-dimethylbenz[a]anthracene]
Categorization (HepG2 cells [1]; 10 μM, 48 h, with S9): genotoxic | Categorization (HepG2 cells [1]; 75 μM, 48 h, without S9): genotoxic^# | Categorization (HepG2 cells [1]; DMBA 10 μM, 48 h, without S9): non-genotoxic | gene expression changes, single compound analysis vs vehicle controls (HepG2 cells [2]; DMBA 10 μM w/o S9): extremely weak or no statistically significant | CDKN1A gene regulation relative to vehicle/S9 control (HepG2 cells [2]; DMBA 10 μM, +S9, 48 h): 3.18* fold | CRABP2 gene regulation relative to vehicle/S9 control (HepG2 cells [2]; DMBA 10 μM, +S9, 48 h): 2.31* fold | EMP1 gene regulation relative to vehicle/S9 control (HepG2 cells [2]; DMBA 10 μM, +S9, 48 h): 1.93* fold | EMP3 gene regulation relative to vehicle/S9 control (HepG2 cells [2]; DMBA 10 μM, +S9, 48 h): 2.61* fold | IER5 gene regulation relative to vehicle/S9 control (HepG2 cells [2]; DMBA 10 μM, +S9, 48 h): 1.83* fold | LGALS7 gene regulation relative to vehicle/S9 control (HepG2 cells [2]; DMBA 10 μM, +S9, 48 h): 1.93* fold | PLAU gene regulation relative to vehicle/S9 control (HepG2 cells [2]; DMBA 10 μM, +S9, 48 h): 2.13* fold | PROCR gene regulation relative to vehicle/S9 control (HepG2 cells [2]; DMBA 10 μM, +S9, 48 h): 2.26* fold | CDKN1A gene regulation relative to vehicle/S9 control (HepG2 cells [2]; DMBA 10 μM, without S9, 48 h): 1.36 fold | CRABP2 gene regulation relative to vehicle/S9 control (HepG2 cells [2]; DMBA 10 μM, without S9, 48 h): 1.10 fold | EMP1 gene regulation relative to vehicle/S9 control (HepG2 cells [2]; DMBA 10 μM, without S9, 48 h): 1.11 fold | EMP3 gene regulation relative to vehicle/S9 control (HepG2 cells [2]; DMBA 10 μM, without S9, 48 h): 1.18 fold | IER5 gene regulation relative to vehicle/S9 control (HepG2 cells [2]; DMBA 10 μM, without S9, 48 h): 1.30* fold | LGALS7 gene regulation relative to vehicle/S9 control (HepG2 cells [2]; DMBA 10 μM, without S9, 48 h): 1.25* fold | PLAU gene regulation relative to vehicle/S9 control (HepG2 cells [2]; DMBA 10 μM, without S9, 48 h): 1.29* fold | PROCR gene regulation relative to vehicle/S9 control (HepG2 cells [2]; DMBA 10 μM, without S9, 48 h): 1.18 fold | regulation of the 91 genes (HepG2 cells [2]; DMBA 75 μM w/o S9): relatively weak | CDKN1A gene regulation relative to vehicle/S9 control (HepG2 cells [2]; DMBA 75 μM, without S9, 48 h): 1.50* fold | CRABP2 gene regulation relative to vehicle/S9 control (HepG2 cells [2]; DMBA 75 μM, without S9, 48 h): 1.27 fold | EMP1 gene regulation relative to vehicle/S9 control (HepG2 cells [2]; DMBA 75 μM, without S9, 48 h): 1.31 fold | EMP3 gene regulation relative to vehicle/S9 control (HepG2 cells [2]; DMBA 75 μM, without S9, 48 h): 1.38* fold | IER5 gene regulation relative to vehicle/S9 control (HepG2 cells [2]; DMBA 75 μM, without S9, 48 h): 1.26* fold | LGALS7 gene regulation relative to vehicle/S9 control (HepG2 cells [2]; DMBA 75 μM, without S9, 48 h): 1.26 fold | PLAU gene regulation relative to vehicle/S9 control (HepG2 cells [2]; DMBA 75 μM, without S9, 48 h): 1.53* fold | PROCR gene regulation relative to vehicle/S9 control (HepG2 cells [2]; DMBA 75 μM, without S9, 48 h): 1.32* fold | prediction using the 91 top-scored genes (HepG2 cells [3]; 75 μM w/o S9): predicted correctly

COS(C)(=O)=O [MMS, methyl methanesulfonate]
EGR1 gene regulation (HepG2 cells [2]): up-regulation | MYC gene regulation (HepG2 cells [2]): down-regulated | AP endonuclease 2 (APEX2) gene regulation (HepG2 cells [2]; after 24 h and 48 h treatment): up-regulated | β-polymerase (POLB) gene regulation (HepG2 cells [2]; after 48 h exposure): up-regulated

CCN(CC)N=O [DEN, N-nitrosodiethylamine]
concentrations giving a positive response [4]: 10000 to 32000 µM | EGR1 gene regulation (HepG2 cells [2]): up-regulation | number of down-regulated genes (HepG2 cells [2]): 57 | number of up-regulated genes (HepG2 cells [2]): 88 | CDKN1A gene regulation relative to vehicle/S9 control (HepG2 cells [2]; DEN 25 mM, +S9, 48 h): 1.95* fold | CRABP2 gene regulation relative to vehicle/S9 control (HepG2 cells [2]; DEN 25 mM, +S9, 48 h): 2.09* fold | EMP1 gene regulation relative to vehicle/S9 control (HepG2 cells [2]; DEN 25 mM, +S9, 48 h): 1.84* fold | EMP3 gene regulation relative to vehicle/S9 control (HepG2 cells [2]; DEN 25 mM, +S9, 48 h): 2.26* fold | IER5 gene regulation relative to vehicle/S9 control (HepG2 cells [2]; DEN 25 mM, +S9, 48 h): 1.50* fold | LGALS7 gene regulation relative to vehicle/S9 control (HepG2 cells [2]; DEN 25 mM, +S9, 48 h): 1.77 fold | PLAU gene regulation relative to vehicle/S9 control (HepG2 cells [2]; DEN 25 mM, +S9, 48 h): 1.84 fold | PROCR gene regulation relative to vehicle/S9 control (HepG2 cells [2]; DEN 25 mM, +S9, 48 h): 1.76* fold | CDKN1A gene regulation relative to vehicle/S9 control (HepG2 cells [2]; DEN 25 mM, without S9, 48 h): −1.19 fold | CRABP2 gene regulation relative to vehicle/S9 control (HepG2 cells [2]; DEN 25 mM, without S9, 48 h): 1.54* fold | EMP1 gene regulation relative to vehicle/S9 control (HepG2 cells [2]; DEN 25 mM, without S9, 48 h): 1.61* fold | EMP3 gene regulation relative to vehicle/S9 control (HepG2 cells [2]; DEN 25 mM, without S9, 48 h): 1.04 fold | IER5 gene regulation relative to vehicle/S9 control (HepG2 cells [2]; DEN 25 mM, without S9, 48 h): 1.06 fold | LGALS7 gene regulation relative to vehicle/S9 control (HepG2 cells [2]; DEN 25 mM, without S9, 48 h): 1.11 fold | PLAU gene regulation relative to vehicle/S9 control (HepG2 cells [2]; DEN 25 mM, without S9, 48 h): 1.86* fold | PROCR gene regulation relative to vehicle/S9 control (HepG2 cells [2]; DEN 25 mM, without S9, 48 h): 1.30 fold | CDKN1A gene regulation relative to vehicle/S9 control (HepG2 cells [2]; DEN 50 mM, +S9, 48 h): 2.20* fold | CRABP2 gene regulation relative to vehicle/S9 control (HepG2 cells [2]; DEN 50 mM, +S9, 48 h): 1.80* fold | EMP1 gene regulation relative to vehicle/S9 control (HepG2 cells [2]; DEN 50 mM, +S9, 48 h): 2.09* fold | EMP3 gene regulation relative to vehicle/S9 control (HepG2 cells [2]; DEN 50 mM, +S9, 48 h): 2.03* fold | IER5 gene regulation relative to vehicle/S9 control (HepG2 cells [2]; DEN 50 mM, +S9, 48 h): 1.51 fold | LGALS7 gene regulation relative to vehicle/S9 control (HepG2 cells [2]; DEN 50 mM, +S9, 48 h): 1.97* fold | PLAU gene regulation relative to vehicle/S9 control (HepG2 cells [2]; DEN 50 mM, +S9, 48 h): 1.59* fold | PROCR gene regulation relative to vehicle/S9 control (HepG2 cells [2]; DEN 50 mM, +S9, 48 h): 1.63* fold | CDKN1A gene regulation relative to vehicle/S9 control (HepG2 cells [2]; DEN 50 mM, without S9, 48 h): −1.48* fold | CRABP2 gene regulation relative to vehicle/S9 control (HepG2 cells [2]; DEN 50 mM, without S9, 48 h): 1.40 fold | EMP1 gene regulation relative to vehicle/S9 control (HepG2 cells [2]; DEN 50 mM, without S9, 48 h): 1.37 fold | EMP3 gene regulation relative to vehicle/S9 control (HepG2 cells [2]; DEN 50 mM, without S9, 48 h): 1.02 fold | IER5 gene regulation relative to vehicle/S9 control (HepG2 cells [2]; DEN 50 mM, without S9, 48 h): 1.03 fold | LGALS7 gene regulation relative to vehicle/S9 control (HepG2 cells [2]; DEN 50 mM, without S9, 48 h): 1.23* fold | PLAU gene regulation relative to vehicle/S9 control (HepG2 cells [2]; DEN 50 mM, without S9, 48 h): 1.44 fold | PROCR gene regulation relative to vehicle/S9 control (HepG2 cells [2]; DEN 50 mM, without S9, 48 h): 1.20 fold | classification by 91 gene-classifier (HepG2 cells [3]; with S9 (MAS)): genotoxic | classification by 91 gene-classifier (HepG2 cells [3]; without S9): non-genotoxic

O=P1(N(CCCl)CCCl)NCCCO1 (centres unmarked) [CPA, cyclophosphamide]
EGR1 gene regulation (HepG2 cells [2]): up-regulation | gene expression changes, single compound analysis vs vehicle controls (HepG2 cells [2]): extremely weak or no statistically significant

aflatoxin B1 [AFB1]
EGR1 gene regulation (HepG2 cells [2]): up-regulation | gene expression changes, single compound analysis vs vehicle controls (HepG2 cells [2]): extremely weak or no statistically significant

Cc1c2oc3c(C)ccc(C(=O)N[C@@H]4C(=O)N[C@H](C(C)C)C(=O)N5CCC[C@H]5C(=O)N(C)CC(=O)N(C)[C@@H](C(C)C)C(=O)O[C@@H]4C)c3nc-2c(C(=O)N[C@@H]2C(=O)N[C@H](C(C)C)C(=O)N3CCC[C@H]3C(=O)N(C)CC(=O)N(C)[C@@H](C(C)C)C(=O)O[C@@H]2C)c(N)c1=O [ACT, actinomycin D] (I: T[dV]P[Sar][NMeV] / II: T[dV]P[Sar][NMeV]; ester I:1-I:C, II:1-II:C; linker I:N-II:N via Actinocin(9to1))
Categorization (HepG2 cells [1]; 250 nM, 24 h, without S9): genotoxic | Categorization (HepG2 cells [1]; 250 nM, 48 h, without S9): genotoxic | MYC gene regulation (HepG2 cells [2]): down-regulated | RNA polymerase II gene regulation (HepG2 cells [2]): down-regulation | topoisomerase II (TOPO2) gene regulation (HepG2 cells [2]): down-regulation | CDKN1A gene regulation relative to vehicle/S9 control (HepG2 cells [2]; ACT 250 nM, without S9, 48 h): −1.15 fold | CRABP2 gene regulation relative to vehicle/S9 control (HepG2 cells [2]; ACT 250 nM, without S9, 48 h): 2.82* fold | EMP1 gene regulation relative to vehicle/S9 control (HepG2 cells [2]; ACT 250 nM, without S9, 48 h): 1.91* fold | EMP3 gene regulation relative to vehicle/S9 control (HepG2 cells [2]; ACT 250 nM, without S9, 48 h): 5.68* fold | IER5 gene regulation relative to vehicle/S9 control (HepG2 cells [2]; ACT 250 nM, without S9, 48 h): 3.07* fold | LGALS7 gene regulation relative to vehicle/S9 control (HepG2 cells [2]; ACT 250 nM, without S9, 48 h): 1.69* fold | PLAU gene regulation relative to vehicle/S9 control (HepG2 cells [2]; ACT 250 nM, without S9, 48 h): 3.69* fold | PROCR gene regulation relative to vehicle/S9 control (HepG2 cells [2]; ACT 250 nM, without S9, 48 h): 2.58* fold
